Test results from US20200009125A1, “Pharmaceutical Compositions For Poorly Water-Soluble Compounds” (ASCENDIA PHARMACEUTICALS, LLC, priority 2013, published 2020).
In brackets after ≈: the same amount, converted by molar mass. Blank lines part the entries; values can stand above or below the molecule they belong to.

Experiments:
[1] = cited from earlier work; for aqueous solubility in water: Source: Drugbank
[2] = cited from earlier work; for pKa: Source: Drugbank or FDA
[3] = physchem

SMILES: COc1ccc(-n2nc(C(N)=O)c3c2C(=O)N(c2ccc(N4CCCCC4=O)cc2)CC3)cc1 [Apixaban, apixaban]
- aqueous solubility in water [1]: 40 to 50 µg/mL
- detectable pKa ([2]; within pH range of 0.0-10.0, Source: Drugbank): no detectable pKa

- solubility ([3]; aqueous solution at pH 1.2, pH 1.2, simulated gastric fluid): 5200 µg/mL (≈ 16200 µM)
- solubility ([3]; aqueous solution at pH 6.8, pH 6.8, aqueous buffer): 14 µg/mL (≈ 43.5 µM)
SMILES: COC(=O)[C@H](c1ccccc1Cl)N1CCc2sccc2C1 [Clopidogrel, clopidogrel]
- pKa [2]: 4.5

SMILES: O=C(O)Cc1ccccc1Nc1c(Cl)cccc1Cl [Diclofenac, diclofenac]
- solubility in intestinal fluid of neutral pH ([1]; as sodium salt, intestinal fluid of neutral pH): 1113 μg/mL

SMILES: CC(C)Cc1ccc(C(C)C(=O)O)cc1 (centres unmarked) [Ibuprofen, ibuprofen]
- solubility of ibuprofen alone at pH 1.2 ([1]; pH 1.2, drug alone, same figure as Drugbank water solubility): 0.021 mg/mL

SMILES: CC(=O)Oc1cc2c(s1)CCN(C(C(=O)C1CC1)c1ccccc1F)C2 (centres unmarked) [Prasugrel, prasugrel]
- aqueous solubility in water [1]: 2.37 µg/mL (≈ 6.35 µM)
- pKa [2]: 5.48

SMILES: CCC(C)n1ncn(-c2ccc(N3CCN(c4ccc(OCC5COC(Cn6cncn6)(c6ccc(Cl)cc6Cl)O5)cc4)CC3)cc2)c1=O (centres unmarked) [itraconazole]
- solubility in gastric fluid ([1]; gastric fluid): 3500 µg/mL (≈ 4960 µM)
- solubility in intestinal fluid ([1]; intestinal fluid): 0.2 µg/mL (≈ 0.283 µM)
